Assay results reported in ChEMBL document CHEMBL1138859, “Synthesis and Src kinase inhibitory activity of a series of 4-[(2,4-dichloro-5-methoxyphenyl)amino]-7-furyl-3-quinolinecarbonitriles” (J Med Chem, 2006).
≈ marks a conversion by molar mass, not a printed value.

How the values were obtained:
[1] = Plasma concentration in nude mouse after 4 hrs at 50 mg/kg, po; assay type: ADME, organism-based; parameters: dose 50 mg/kg, route oral
[2] = tested on: Mus musculus; experiment: Toxicity in nude mouse at 150 mg/kg, po; assay type: organism-based; parameters: dose 150 mg/kg, route oral; conditions: in vivo
[3] = target: Proto-oncogene tyrosine-protein kinase Src (Homo sapiens, UniProt P12931); experiment: Inhibition of Src
[4] = target: RAC-alpha serine/threonine-protein kinase (Homo sapiens, UniProt P31749); experiment: Inhibition of AKT
[5] = target: Epidermal growth factor receptor (Homo sapiens, UniProt P00533); experiment: Inhibitory activity against EGFR
[6] = Stability in rat liver microsomes after 30 min; assay type: ADME, Microsome; conditions: read-out: Stability
[7] = Plasma concentration in nude mouse after 24 hrs at 50 mg/kg, po; assay type: ADME, organism-based; parameters: dose 50 mg/kg, route oral
[8] = target: Cyclin-dependent kinase 4 (Homo sapiens, UniProt P11802); experiment: Inhibition of CDK4
[9] = target: T1, 3-phosphoinositide-dependent protein kinase 1 (Homo sapiens, UniProt O15530); experiment: Inhibitory activity against PDK1
T1 sequence (O15530 whole entry): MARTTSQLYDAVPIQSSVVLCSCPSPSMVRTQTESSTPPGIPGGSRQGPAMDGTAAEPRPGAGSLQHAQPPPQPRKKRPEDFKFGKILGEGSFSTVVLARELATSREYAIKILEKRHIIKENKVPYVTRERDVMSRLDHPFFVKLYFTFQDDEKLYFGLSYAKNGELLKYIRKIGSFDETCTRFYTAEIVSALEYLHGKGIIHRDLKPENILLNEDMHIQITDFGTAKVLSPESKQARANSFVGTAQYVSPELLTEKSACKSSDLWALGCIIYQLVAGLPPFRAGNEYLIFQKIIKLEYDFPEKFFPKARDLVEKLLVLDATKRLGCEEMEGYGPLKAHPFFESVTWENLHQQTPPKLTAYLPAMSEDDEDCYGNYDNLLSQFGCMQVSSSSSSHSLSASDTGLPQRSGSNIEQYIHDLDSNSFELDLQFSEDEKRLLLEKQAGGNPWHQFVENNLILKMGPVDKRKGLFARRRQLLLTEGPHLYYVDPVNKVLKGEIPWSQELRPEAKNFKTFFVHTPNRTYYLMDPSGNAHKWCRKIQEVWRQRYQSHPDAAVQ

[10] = Plasma concentration in nude mouse after 8 hrs at 50 mg/kg, po; assay type: ADME, organism-based; parameters: dose 50 mg/kg, route oral
[11] = tested on: HT-29; experiment: Antitumor activity against HT29 cells xenografted in nude mouse after 21 days at 150 mg/kg, po; assay type: functional, Homo sapiens
[12] = target: Vascular endothelial growth factor receptor 2 (Homo sapiens, UniProt P35968); experiment: Inhibition of KDR
[13] = Permeability by PAMPA assay; assay type: ADME; conditions: read-out: permeability
[14] = Solubility at pH 4.5; assay type: physicochemical; conditions: buffer
[15] = Stability in nude mouse liver microsomes; assay type: ADME, Microsome

Sequence of Vascular endothelial growth factor receptor 2 (P35968 whole entry): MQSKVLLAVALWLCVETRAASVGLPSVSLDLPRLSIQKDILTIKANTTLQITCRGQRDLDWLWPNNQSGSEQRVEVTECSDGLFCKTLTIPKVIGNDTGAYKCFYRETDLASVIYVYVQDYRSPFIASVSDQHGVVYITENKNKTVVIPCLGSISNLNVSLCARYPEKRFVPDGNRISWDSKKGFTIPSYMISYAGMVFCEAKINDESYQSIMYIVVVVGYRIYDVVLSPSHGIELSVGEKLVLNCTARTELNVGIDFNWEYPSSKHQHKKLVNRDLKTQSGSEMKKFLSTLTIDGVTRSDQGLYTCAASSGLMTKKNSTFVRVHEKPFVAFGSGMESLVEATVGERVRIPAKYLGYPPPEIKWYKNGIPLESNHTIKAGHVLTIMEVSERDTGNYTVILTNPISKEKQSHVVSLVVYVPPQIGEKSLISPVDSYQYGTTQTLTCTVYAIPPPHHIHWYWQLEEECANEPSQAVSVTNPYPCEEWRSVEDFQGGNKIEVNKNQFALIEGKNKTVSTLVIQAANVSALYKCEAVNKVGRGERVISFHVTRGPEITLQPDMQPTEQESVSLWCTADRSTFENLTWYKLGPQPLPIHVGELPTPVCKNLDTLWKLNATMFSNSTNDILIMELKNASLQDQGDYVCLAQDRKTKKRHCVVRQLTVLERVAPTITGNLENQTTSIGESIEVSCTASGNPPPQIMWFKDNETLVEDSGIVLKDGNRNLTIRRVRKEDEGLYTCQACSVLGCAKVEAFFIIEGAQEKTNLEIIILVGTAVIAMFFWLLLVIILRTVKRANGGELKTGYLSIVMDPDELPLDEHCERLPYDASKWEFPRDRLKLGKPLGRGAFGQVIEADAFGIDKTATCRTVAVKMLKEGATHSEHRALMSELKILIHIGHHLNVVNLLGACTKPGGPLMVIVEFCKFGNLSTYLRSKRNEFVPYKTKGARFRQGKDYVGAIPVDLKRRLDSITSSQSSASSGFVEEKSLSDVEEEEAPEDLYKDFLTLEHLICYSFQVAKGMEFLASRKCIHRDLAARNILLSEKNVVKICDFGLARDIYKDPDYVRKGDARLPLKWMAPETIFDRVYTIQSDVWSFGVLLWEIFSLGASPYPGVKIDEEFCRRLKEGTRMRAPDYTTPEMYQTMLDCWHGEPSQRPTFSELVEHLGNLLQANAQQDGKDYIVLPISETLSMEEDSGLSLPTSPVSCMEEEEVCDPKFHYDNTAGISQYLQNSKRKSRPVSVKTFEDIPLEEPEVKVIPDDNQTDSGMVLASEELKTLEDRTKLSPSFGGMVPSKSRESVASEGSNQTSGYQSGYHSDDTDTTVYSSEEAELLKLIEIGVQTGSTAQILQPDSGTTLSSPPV
Sequence of Proto-oncogene tyrosine-protein kinase Src (P12931 2-536 limits assumed): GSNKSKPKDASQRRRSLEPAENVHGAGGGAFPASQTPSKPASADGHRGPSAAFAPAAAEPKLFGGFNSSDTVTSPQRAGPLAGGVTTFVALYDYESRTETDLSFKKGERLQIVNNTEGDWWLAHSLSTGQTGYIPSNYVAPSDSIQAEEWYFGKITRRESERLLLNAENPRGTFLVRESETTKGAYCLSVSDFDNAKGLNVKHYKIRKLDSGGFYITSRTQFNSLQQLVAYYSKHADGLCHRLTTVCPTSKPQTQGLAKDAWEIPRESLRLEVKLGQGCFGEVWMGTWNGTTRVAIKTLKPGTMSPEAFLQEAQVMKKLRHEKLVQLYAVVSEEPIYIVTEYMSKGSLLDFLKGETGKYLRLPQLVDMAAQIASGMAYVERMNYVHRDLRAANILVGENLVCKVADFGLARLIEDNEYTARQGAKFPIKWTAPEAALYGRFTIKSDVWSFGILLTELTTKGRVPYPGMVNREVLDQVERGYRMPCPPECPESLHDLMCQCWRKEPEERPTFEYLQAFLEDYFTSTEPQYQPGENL
Sequence of Cyclin-dependent kinase 4 (P11802 whole entry): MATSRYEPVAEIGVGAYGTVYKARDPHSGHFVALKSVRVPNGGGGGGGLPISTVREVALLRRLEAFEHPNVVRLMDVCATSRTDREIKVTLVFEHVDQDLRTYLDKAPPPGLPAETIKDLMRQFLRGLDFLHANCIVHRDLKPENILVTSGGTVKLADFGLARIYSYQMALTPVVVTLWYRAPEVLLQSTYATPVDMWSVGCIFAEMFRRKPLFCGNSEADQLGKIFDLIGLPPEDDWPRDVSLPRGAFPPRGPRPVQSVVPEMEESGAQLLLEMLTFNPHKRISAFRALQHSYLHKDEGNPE
Sequence of Epidermal growth factor receptor (P00533 whole entry): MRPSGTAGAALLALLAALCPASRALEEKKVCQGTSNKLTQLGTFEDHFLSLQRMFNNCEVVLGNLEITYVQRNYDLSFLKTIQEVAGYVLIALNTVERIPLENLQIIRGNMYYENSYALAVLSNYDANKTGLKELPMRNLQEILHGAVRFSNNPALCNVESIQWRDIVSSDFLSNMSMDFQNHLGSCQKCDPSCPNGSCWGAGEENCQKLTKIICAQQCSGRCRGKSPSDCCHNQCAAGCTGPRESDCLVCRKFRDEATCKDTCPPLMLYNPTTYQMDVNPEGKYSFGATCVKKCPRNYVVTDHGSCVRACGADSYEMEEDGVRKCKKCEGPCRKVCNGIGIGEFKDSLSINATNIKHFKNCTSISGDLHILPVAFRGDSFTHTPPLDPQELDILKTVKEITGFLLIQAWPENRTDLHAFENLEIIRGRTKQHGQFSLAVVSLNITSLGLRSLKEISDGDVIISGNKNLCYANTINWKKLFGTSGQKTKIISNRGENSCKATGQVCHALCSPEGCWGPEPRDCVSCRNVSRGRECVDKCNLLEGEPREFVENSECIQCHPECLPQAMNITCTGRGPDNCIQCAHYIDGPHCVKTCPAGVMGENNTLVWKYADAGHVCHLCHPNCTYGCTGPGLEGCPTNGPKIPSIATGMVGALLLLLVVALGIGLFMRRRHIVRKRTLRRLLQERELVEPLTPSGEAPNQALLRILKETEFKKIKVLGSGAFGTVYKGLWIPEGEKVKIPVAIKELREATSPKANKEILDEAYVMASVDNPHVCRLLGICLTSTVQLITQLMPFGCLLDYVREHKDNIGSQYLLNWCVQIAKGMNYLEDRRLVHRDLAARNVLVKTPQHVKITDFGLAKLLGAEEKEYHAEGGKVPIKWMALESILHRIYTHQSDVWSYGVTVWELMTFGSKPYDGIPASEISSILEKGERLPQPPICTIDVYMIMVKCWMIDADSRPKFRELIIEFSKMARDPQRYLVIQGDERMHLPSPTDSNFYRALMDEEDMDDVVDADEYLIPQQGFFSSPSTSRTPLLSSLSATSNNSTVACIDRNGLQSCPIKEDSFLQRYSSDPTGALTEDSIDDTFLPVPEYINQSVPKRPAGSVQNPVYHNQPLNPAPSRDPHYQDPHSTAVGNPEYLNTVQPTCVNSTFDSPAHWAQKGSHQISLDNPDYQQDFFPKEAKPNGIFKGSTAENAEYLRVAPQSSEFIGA
Sequence of RAC-alpha serine/threonine-protein kinase (P31749 whole entry): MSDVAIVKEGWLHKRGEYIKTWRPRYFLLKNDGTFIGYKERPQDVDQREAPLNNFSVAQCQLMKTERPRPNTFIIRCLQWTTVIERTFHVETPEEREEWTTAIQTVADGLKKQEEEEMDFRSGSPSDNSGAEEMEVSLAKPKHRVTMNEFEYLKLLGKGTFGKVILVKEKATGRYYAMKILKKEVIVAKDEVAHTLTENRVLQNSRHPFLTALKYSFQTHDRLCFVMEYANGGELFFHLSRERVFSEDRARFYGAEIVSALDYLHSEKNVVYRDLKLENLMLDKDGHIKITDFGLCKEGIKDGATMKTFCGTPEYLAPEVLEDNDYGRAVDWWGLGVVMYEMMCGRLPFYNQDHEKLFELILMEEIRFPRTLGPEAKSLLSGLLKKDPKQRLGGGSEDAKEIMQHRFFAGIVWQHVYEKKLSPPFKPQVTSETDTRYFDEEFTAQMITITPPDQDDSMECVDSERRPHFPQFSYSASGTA

**Q.** What does the source list for `COc1cc(Nc2c(C#N)cnc3cc(-c4coc(CN5CCN(C)CC5)c4)c(OC)cc23)c(Cl)cc1Cl`?
**A.** concentration at 4 h [1]: 1140 ng/mL; Activity [2]: Non-toxic; IC50 [3]: 0.00078 µM; IC50 [4]: > 1 µM; IC50 [5]: 0.23 µM; remaining at 0.5 h [6]: 72%; concentration at 24 h [7]: 103 ng/mL; IC50 [8]: > 1 µM; IC50 [9]: > 1 µM; concentration at 8 h [10]: 1030 ng/mL; Activity [11]: 38%; IC50 [12]: > 1 µM; Papp [13]: 2 ×10⁻⁶ cm/s; solubility [14]: 63 µg/mL (≈ 114 µM); half-life [15]: 32 min
